# System: skin
# Experiment: Affymetrix microarray of skin, DBP-4 hr and analogs vs. untreated; gene selection by log-2 fold change, Wilcoxon, Kendall tau (Tables 8, 9)
# Format: in vivo, mouse
# Conditions: for Kendall: Kendall tau coefficient
# [1] = DBP-4 hr vs. untreated, rank-sum p-value
# [2] = Kendall tau, expression vs. output
structure (smiles),measurement,setting,value
"CCCCOC(=O)c1ccccc1C(=O)OCCCC [DBP, dibutylphthalate]",Gm10229 XM_003086003_at Wilcoxon,[1],Yes
same,Gsdmc NM_031378_at Wilcoxon,[1],Yes
same,H19 NR_001592_at Wilcoxon,[1],Yes
same,Il1rl1 NM_001025602_at Wilcoxon,[1],No
same,Inpp5a NM_001127363_at Wilcoxon,[1],No
same,Inpp5d NM_001110192_at Wilcoxon,[1],No
same,Inpp5d NM_001110193_at Wilcoxon,[1],No
same,Klhdc5 NM_001081237_at Wilcoxon,[1],No
same,Krt33a NM_027983_at Wilcoxon,[1],Yes
same,Krt34 NM_027563_at Wilcoxon,[1],Yes
same,Krtap1-5 NM_027157_at Wilcoxon,[1],Yes
same,Krtap3-1 NM_023511_at Wilcoxon,[1],Yes
same,Krtap3-3 NM_025524_at Wilcoxon,[1],Yes
same,Krtap4-2 NM_026807_at Wilcoxon,[1],Yes
same,Krtap5-2 NM_027844_at Wilcoxon,[1],Yes
same,Krtap9-3 NM_029351_at Wilcoxon,[1],Yes
same,Krtap13-1 NM_183189_at Wilcoxon,[1],Yes
same,Krtap16-1 NM_130870_at Wilcoxon,[1],Yes
same,Krtap16-5 NM_130857_at Wilcoxon,[1],Yes
same,Krtap16-7 NM_028621_at Wilcoxon,[1],Yes
same,Krtap16-8 NM_130856_at Wilcoxon,[1],Yes
same,Krtap16-9 NM_130876_at Wilcoxon,[1],Yes
same,Krtap16-10 NM_183296_at Wilcoxon,[1],Yes
same,Krtap28-13 XM_896507_at Wilcoxon,[1],Yes
same,Krtap28-13 XM_919110_at Wilcoxon,[1],Yes
same,LOC100503254 XM_003085741_at Wilcoxon,[1],Yes
same,Lmod2 NM_053098_at Wilcoxon,[1],Yes
same,Lyz2 NM_017372_at Wilcoxon,[1],Yes
same,Mfhas1 NM_001081279_at Wilcoxon,[1],No
same,Mfsd4 NM_001114662_at Wilcoxon,[1],No
same,Mia1 NM_019394_at Wilcoxon,[1],Yes
same,Mrpl44 NM_001081210_at Wilcoxon,[1],No
same,Ms4a6d NM_026835_at Wilcoxon,[1],Yes
same,Mylpf NM_016754_at Wilcoxon,[1],Yes
same,Myoz2 NM_021503_at Wilcoxon,[1],Yes
same,Ncbp1 NM_001033201_at Wilcoxon,[1],No
same,Nolc1 NM_001039351_at Wilcoxon,[1],No
same,Nolc1 NM_001039352_at Wilcoxon,[1],No
same,Nolc1 NM_001039353_at Wilcoxon,[1],No
same,Nrap NM_198059_at Wilcoxon,[1],Yes
same,Nusap1 NM_133851_at Wilcoxon,[1],Yes
same,Ogfrl1 NM_001081079_at Wilcoxon,[1],No
same,Olr1 NM_138648_at Wilcoxon,[1],Yes
same,Oxr1 NM_001130163_at Wilcoxon,[1],No
same,Oxr1 NM_001130164_at Wilcoxon,[1],No
same,Oxr1 NM_001130165_at Wilcoxon,[1],No
same,Oxr1 NM_001130166_at Wilcoxon,[1],No
same,Pgam2 NM_018870_at Wilcoxon,[1],Yes
same,Pigyl NM_001082532_at Wilcoxon,[1],No
same,Pparg NM_001127330_at Wilcoxon,[1],No
same,Ppih NM_001110129_at Wilcoxon,[1],No
same,Prg4 NM_021400_at Wilcoxon,[1],Yes
same,Retnla NM_020509_at Wilcoxon,[1],Yes
same,Rffl NM_001007465_at Wilcoxon,[1],No
same,Rn18s NR_003278_at Wilcoxon,[1],Yes
same,Rpl3l NM_025425_at Wilcoxon,[1],Yes
same,Slc39a14 NM_001135151_at Wilcoxon,[1],No
same,Sln NM_025540_at Wilcoxon,[1],Yes
same,Smpx NM_025357_at Wilcoxon,[1],Yes
same,Tnfrsf9 NM_001077508_at Wilcoxon,[1],No
same,Tnfrsf9 NM_001077509_at Wilcoxon,[1],No
same,Tnni1 NM_021467_at Wilcoxon,[1],Yes
same,Trdn NM_029726_at Wilcoxon,[1],Yes
same,Trf NM_133977_at Wilcoxon,[1],Yes
same,Trp63 NM_001127259_at Wilcoxon,[1],No
same,Trp63 NM_001127260_at Wilcoxon,[1],No
same,Trp63 NM_001127262_at Wilcoxon,[1],No
same,Trp63 NM_001127264_at Wilcoxon,[1],No
same,Ttn NM_028004_at Wilcoxon,[1],Yes
same,Wbp1 NM_001083922_at Wilcoxon,[1],No
same,Wbp1 NM_001083923_at Wilcoxon,[1],No
same,Wfdc2 NM_026323_at Wilcoxon,[1],Yes
same,Zfp68 NM_001044747_at Wilcoxon,[1],No
same,Zfp187 NM_001013786_at Wilcoxon,[1],No
same,Zfp518b NM_001081144_at Wilcoxon,[1],No
same,Zfp943 NM_001025373_at Wilcoxon,[1],No
same,Wilcoxon,"Egr1 NM_007913_at, DBP-4 hr vs. untreated",Yes
same,Kendall,Egr1 NM_007913_at,No
same,Wilcoxon,"Ehf NM_007914_at, DBP-4 hr vs. untreated",Yes
same,Kendall,Ehf NM_007914_at,No
same,Wilcoxon,"Ereg NM_007950_at, DBP-4 hr vs. untreated",Yes
same,Kendall,Ereg NM_007950_at,No
same,Wilcoxon,"Fgfbp1 NM_008009_at, DBP-4 hr vs. untreated",No
same,Kendall,Fgfbp1 NM_008009_at,No
same,Wilcoxon,"Gch1 NM_008102_at, DBP-4 hr vs. untreated",Yes
same,Kendall,Gch1 NM_008102_at,No
same,Wilcoxon,"Gjb2 NM_008125_at, DBP-4 hr vs. untreated",Yes
same,Kendall,Gjb2 NM_008125_at,No
same,Wilcoxon,"Gpr65 NM_008152_at, DBP-4 hr vs. untreated",Yes
same,Kendall,Gpr65 NM_008152_at,No
same,1110032A04Rik NM_133675_at Kendall,[2],No
same,2510002D24Rik NM_001033164_at Kendall,[2],Yes
same,2510009E07Rik NM_001001881_at Kendall,[2],Yes
same,2610528A11Rik XR_105647_at Kendall,[2],No
same,1500015010Rik NM_024283_at Kendall,[2],No
same,3110079015Rik NM_028473_at Kendall,[2],No
same,A2m NM_175628_at Kendall,[2],No
same,AY026312 NM_133359_at Kendall,[2],No
same,Actn2 NM_033268_at Kendall,[2],No
same,Akr1c14 NM_134072_at Kendall,[2],No
same,Aldh7a1 NM_001127338_at Kendall,[2],Yes
same,Aox4 NM_023631_at Kendall,[2],No
same,Asb5 NM_029569_at Kendall,[2],No
same,Atp2a2 NM_001110140_at Kendall,[2],Yes
same,Atp13a3 NM_001128094_at Kendall,[2],Yes
same,Atp13a3 NM_001128096_at Kendall,[2],Yes
same,Bcr NM_001081412_at Kendall,[2],Yes
same,Camk2g NM_001039138_at Kendall,[2],Yes
same,Camk2g NM_001039139_at Kendall,[2],Yes
same,Ccl8 NM_021443_at Kendall,[2],No
same,Ccl24 NM_019577_at Kendall,[2],No
same,Cd209d NM_130904_at Kendall,[2],No
same,Ckmt2 NM_198415_at Kendall,[2],No
same,Cldn8 NM_018778_at Kendall,[2],No
same,Clec4n NM_020001_at Kendall,[2],No
same,Cmya5 NM_023821_at Kendall,[2],No
same,Comp NM_016685_at Kendall,[2],No
same,Corin NM_016869_at Kendall,[2],No
same,Crispld1 NM_031402_at Kendall,[2],No
same,Cxcl10 NM_021274_at Kendall,[2],No
same,Cxcr6 NM_030712_at Kendall,[2],No
same,Cyth1 NM_001112699_at Kendall,[2],Yes
same,Cyth1 NM_001112700_at Kendall,[2],Yes
same,Dbp NM_016974_at Kendall,[2],No
same,Deptor NM_001037937_at Kendall,[2],Yes
same,Dlgap4 NM_001042487_at Kendall,[2],Yes
same,Dlgap4 NM_001042488_at Kendall,[2],Yes
same,Ear5 NM_019398_at Kendall,[2],No
same,Fam134b NM_001034851_at Kendall,[2],Yes
same,Gcdh NM_001044744_at Kendall,[2],Yes
same,Gm10228 XM_001474297_at Kendall,[2],No
same,Gm10228 XM_003086004_at Kendall,[2],No
same,Gm10229 XM_003086003_at Kendall,[2],No
same,Gsdmc NM_031378_at Kendall,[2],No
same,H19 NR_001592_at Kendall,[2],No
same,Il1rl1 NM_001025602_at Kendall,[2],Yes
same,Inpp5a NM_001127363_at Kendall,[2],Yes
same,Inpp5d NM_001110192_at Kendall,[2],Yes
same,Inpp5d NM_001110193_at Kendall,[2],Yes
same,Klhdc5 NM_001081237_at Kendall,[2],Yes
same,Krt33a NM_027983_at Kendall,[2],No
same,Krt34 NM_027563_at Kendall,[2],No
same,Krtap1-5 NM_027157_at Kendall,[2],No
same,Krtap3-1 NM_023511_at Kendall,[2],No
same,Krtap3-3 NM_025524_at Kendall,[2],No
same,Krtap4-2 NM_026807_at Kendall,[2],No
same,Krtap5-2 NM_027844_at Kendall,[2],No
same,Krtap9-3 NM_029351_at Kendall,[2],No
same,Krtap13-1 NM_183189_at Kendall,[2],No
same,Krtap16-1 NM_130870_at Kendall,[2],No
same,Krtap16-5 NM_130857_at Kendall,[2],No
same,Krtap16-7 NM_028621_at Kendall,[2],No
same,Krtap16-8 NM_130856_at Kendall,[2],No
same,Krtap16-9 NM_130876_at Kendall,[2],No
same,Krtap16-10 NM_183296_at Kendall,[2],No
same,Krtap28-13 XM_896507_at Kendall,[2],No
same,Krtap28-13 XM_919110_at Kendall,[2],No
same,LOC100503254 XM_003085741_at Kendall,[2],No
same,Lmod2 NM_053098_at Kendall,[2],No
same,Lyz2 NM_017372_at Kendall,[2],No
same,Mfhas1 NM_001081279_at Kendall,[2],Yes
same,Mfsd4 NM_001114662_at Kendall,[2],Yes
same,Mia1 NM_019394_at Kendall,[2],No
same,Mrpl44 NM_001081210_at Kendall,[2],Yes
same,Ms4a6d NM_026835_at Kendall,[2],No
same,Mylpf NM_016754_at Kendall,[2],No
same,Myoz2 NM_021503_at Kendall,[2],No
same,Ncbp1 NM_001033201_at Kendall,[2],Yes
same,Nolc1 NM_001039351_at Kendall,[2],Yes
same,Nolc1 NM_001039352_at Kendall,[2],Yes
same,Nolc1 NM_001039353_at Kendall,[2],Yes
same,Nrap NM_198059_at Kendall,[2],No
same,Nusap1 NM_133851_at Kendall,[2],No
same,Ogfrl1 NM_001081079_at Kendall,[2],Yes
same,Olr1 NM_138648_at Kendall,[2],No
same,Oxr1 NM_001130163_at Kendall,[2],Yes
same,Oxr1 NM_001130164_at Kendall,[2],Yes
same,Oxr1 NM_001130165_at Kendall,[2],Yes
